Experimental data taken from the NIST ThermoML archive (doi:10.1021/acs.jced.7b00489).
± gives the expanded uncertainty stated by the source.

Details: Crystal; DSC

Triple point temperature: 471.65 ± 1.8 K
SMILES: O=C(c1cc(Cc2n[nH]c(=O)c3ccccc23)ccc1F)N1CCN(C(=O)C2CC2)CC1 [olaparib]
